Measurements as given in patent publication US20250195653A1, “MULTIFUNCTIONAL NATURAL KILLER (NK) CELL ENGAGER COMBINATION THERAPY FOR TREATING HEMATOLOGICAL NEOPLASTIC DISORDERS” (SANOFI, priority 2023, published 2025).
Entries after “also recorded” stand apart in the source; their conditions may differ.

Experiments:
NK cells [1] = test: NK cell phenotype in the presence of AZA or VEN; format: cell-based, human; details: AZA or VEN at defined concentrations (1 μM AZA, 1 nM VEN, 48 h)
Description: (§1) Human NK cells were purified from PBMCs using MACSxpress® Whole Blood NK Cell Isolation Kit (Miltenyi, ref #130-127-695) according to supplier recommendations. NK cells were then cultured in complete medium at 5×10^6 cells/mL at +37° C. at 5% CO2 (so called “resting” NK cells) overnight before being used in the activation assay.
(§2) Following the proper timing of incubation (from 6 h to 72 h), 0.05×10^6 cells/well MOLM-13 and NK cells in 96-well round bottom plates (Corning® Costar® Ultra-Low Attachment Multiple 96-Well Plate; Thermo Scientific, Denmark, ref #7007) were centrifuged at 300 g for 5 minutes at RT. Supernatant was aspirated and Tampon Running Buffer (Miltenyi, ref #130-091-2221) or the antibodies were added to the cell pellets (50 μL/well). In addition, 1 μL of each antibody was used to stain the compensation beads. The cells and the beads were incubated for 20 minutes at 4° C. Two consecutive washing steps were performed by adding 150 and then 200 μL of Tampon Running Buffer in the wells followed by centrifugation at 300 g for 5 minutes at 4° C.
(§3) Finally, 100 μL/well of PBS were added before reading the plate by MACSQuant Analyzer 16 Flow Cytometer. The propidium iodide (PI) marker of viability was added to every well reading at 1/10 dilution.

MOLM-13 cells = test: MOLM-13 cell viability over 72 h and 6 days with AZA or VEN (flow cytometry); format: cell-based
Description: as §2, §3

MOLM-13 RFP AML cells = test: Incucyte in vitro killing assay with NK effector cells, E:T 1:1; format: cell-based; details: CD123 NKCE 5 ng/mL, AZA 600 nM or VEN 2 nM
Description: MOLM-13 RFP cells were generated by infecting MOLM-13 (DSMZ, ACC: 554) with the Incucyte® Nuclight Red Lentivirus (Sartorius #4476) to express a nuclear-restricted mKate2 (red fluorescent protein, RFP). MOLM-13 RFP cells were harvested in the same culture medium used for wild-type cells with the addition of 1 μg/mL of puromycin (Gibco, ref #A11138-03) to maintain the selection pressure.
Human NK cells were purified from PBMCs using MACSxpress® Whole Blood NK Cell Isolation Kit (Miltenyi, ref #130-127-695) according to supplier recommendations. […]
Cytotoxicity was evaluated using the Incucyte live-cells analysis system which allows to quantify the number of live fluorescent target cells over time.
First, 50 μL of CD123 NKCE and its isotype control were distributed in the appropriate wells of an F-bottom (flat-bottom) 96-well plate coated with poly-D-lysine (Greiner BioOne ref #655946). CD123 NKCE was tested at 5 ng/mL, while its isotype was evaluated at the highest concentration of 100 ng/ml. […]
The growth/proliferation of MOLM-13 RFP tumor cells was monitored by cell imaging up to 64 h using the Incucyte® S3 with standard scans every 4 h. […] Tumor cells growth/proliferation was calculated by counting the number of red cells at each time point, which was then normalized to the number of cells at time zero and expressed as a percentage.

NK cells [2] = test: NK cell viability after treatment with AZA or VEN; format: cell-based, human; details: 0.01 nM to 10 μM, 48 h, 3 independent NK donors
Description: as §1
(§4) Of these serial dilutions 100 μL of VEN (single agent) was added to each well that contains 100 μL of cell suspension to obtain a final concentration of 10, 1, 0.1, 0.01, 0.001, 0.0001, 0.00001 μM in a final volume of 200 μL/well.
as §2, with “Two consecutive washing steps were performed by adding 150 and then 200 μL of Tampon Running Buffer in the wells followed by centrifugation at 300 g for 5 minutes at 4° C.” left out
as §3

CD16a on NK cells = test: CD16a expression on NK cells by flow cytometry; format: cell-based, human; details: 1 μM AZA or 1 nM VEN
Description: as §1, §2, §3

[3] = test system: CD123-positive MOLM-13 AML cell line; test: 5-azacytidine and venetoclax flow cytometry cytotoxic assay, 48 h; format: cell-based
Description: The MOLM-13 cell line (DSMZ ACC 554) is an acute myeloid leukemia cell line. These cells are mostly round cells growing in suspension. For maintenance, cells were resuspended in fresh RPMI1640 medium supplemented with 10% Fetal Bovin Serum (FBS; Biowest, ref #S140H-100) and 2 mM L-Glutamine (Gibco, ref #25030-024) referred as complete culture medium at 0.3×10^6 cells/mL for 3 or 4 days.
On the day of the assay, the product was thawed and vortexed to eliminate potential aggregates before cascade dilution. A first dilution of 1/100 was performed in complete culture medium. Then, a dilution range from 20 μM (twice concentrated) to 20 pM (1/10 serial dilution) was performed in complete culture medium to assess the concentration-dependent effect of the single agent.
Similarly, stock solution of VEN was stored in complete culture medium at 4° C. On the day of the assay, the product was vortexed to eliminate potential aggregates before cascade dilution. A dilution range from 20 μM (twice concentrated) to 20 pM (1/10 serial dilution) was performed in complete culture medium to assess the concentration-dependent effect of the single agent.
as §4
CD123-positive MOLM-13 target cells were counted the day of the assay and the amount of cell needed for the experiment was evaluated. Target cells were seeded at 0.05×10^6 cells/50 μL of complete culture medium per well.
In the meantime, compound seral dilutions or the four defined concentrations were prepared and added to a U-bottom 96-well plate (100 μL/well). As controls, target cells alone without drugs, were cultured at the same concentration in complete culture medium (200 μL/well). Each condition was performed in monoplicate.
Culture plates were incubated at 37° C. in the presence of 5% CO2 for 48 h. The plates were centrifuged at 300 g for 5 minutes at RT and resuspended in 100 μL of PBS to the following reading by MACSQuant Analyzer 16 Flow. The marker of viability PI was added to every well reading at dilution 1/10.

NKp46 on NK cells = test: NKp46 expression on NK cells by flow cytometry; format: cell-based, human; details: 1 μM AZA or 1 nM VEN
Description: as §1, §2, §3

CD123 on MOLM-13 cells = test: CD123 expression on MOLM-13 cells by flow cytometry; format: cell-based; details: for CD123 expression level (MedFI) on MOLM-13 cells: 0.01 nM to 10 μM; for CD123 expression (median fluorescence intensity) on MOLM-13 cells: 1 nM and 1 μM, 6 h, 24 h or 48 h, MOLM-13 alone or with NK cells from two donors; for CD123 target expression on MOLM-13 AML tumor cells (conclusion): at the tested concentrations, up to 6 days of treatment
Description: as §2, §3
(§5) Finally, NK cell at effector:target (E:T) ratio of 1:1 (thus 0.05×10^6 cells/well) were incubated with MOLM-13 cell line at 37° C. in the presence of 5% CO2. After 6 h, 24 h, or 48 h, plates were centrifuged at 300 g for 5 minutes at RT. The Tampon Running Buffer or the selected antibodies were added to the cell pellets (50 μL/well) to assess cell viability and to perform the flow cytometry-based staining.

[4] = cited from earlier work
[5] = at the dose of 400 mg; cited from earlier work
[6] = test system: CD123-positive MOLM-13 cells; test: 5-azacytidine and venetoclax cytotoxic assays in the absence or presence of NK cells (6 h, 24 h, 48 h); format: cell-based; details: VEN 1 μM
Description: as §5

SMILES | impact on NK cell phenotype (NK cells [1]) | target cell lysis, single agent (MOLM-13 RFP AML cells) | NK cell viability (NK cells [2]) | CD16a expression level on NK cells (CD16a on NK cells) | NKp46 expression level on NK cells (NKp46 on NK cells) | CD123 expression level (MedFI) on MOLM-13 cells (CD123 on MOLM-13 cells; 48 h) | CD123 expression (median fluorescence intensity) on MOLM-13 cells (CD123 on MOLM-13 cells) | CD123 target expression on MOLM-13 AML tumor cells (conclusion) (CD123 on MOLM-13 cells) | also measured
Nc1ncn([C@@H]2O[C@H](CO)[C@@H](O)[C@H]2O)c(=O)n1 [AZA, 4-amino-1-beta-D-ribofuranosyl-s-triazin-2 (1H)-one] | minimal impact | increased target cell lysis; also recorded: some target lysis | did not negatively impact; also recorded: no cytotoxic effect | no impact | no impact | minimal impact | did not impact | minimal impact | MOLM-13 cell viability (MOLM-13 cells; AZA 600 nM and 3 μM): did not affect; MOLM-13 AML cell viability ([3]; AZA at high concentration (10 μM), 48 h): strongly decreased; also recorded: cytotoxic activity; MOLM-13 AML cell viability ([3]; AZA at lower concentrations, 48 h, compared to non-treated control): No effect; CD123 median of fluorescence intensity (MedFI) on MOLM-13 cells (CD123 on MOLM-13 cells; AZA at 1 and 10 μM, 48 h): slight decrease
CC1(C)CCC(CN2CCN(c3ccc(C(=O)NS(=O)(=O)c4ccc(NCC5CCOCC5)c([N+](=O)[O-])c4)c(Oc4cnc5[nH]ccc5c4)c3)CC2)=C(c2ccc(Cl)cc2)C1 [VEN] | minimal impact | increased target cell lysis; also recorded: some target lysis | did not negatively impact; also recorded: no cytotoxic effect | no impact | no impact | mild reduction | did not impact | minimal impact | aqueous solubility [4]: very low; MOLM-13 viability (MOLM-13 cells; VEN 2, 5 and 10 nM): impacted MOLM-13 viability mainly after 6 days; plasma concentration [5]: 2000 nM; killing potential on MOLM-13 cells [6]: enhanced killing potential; impact on MOLM-13 cell viability ([6]; 6 h): no impact; impact on MOLM-13 cell viability ([6]; 24 h): moderate; impact on MOLM-13 cell viability ([6]; 48 h): strong impact; MOLM-13 cell viability, concentration-dependent response ([3]; VEN 0.01 nM to 10 μM, 48 h): impact on MOLM-13 cell viability from 10 nM to 10 μM; killing activity as a single agent ([3]; VEN at its plasma concentration, 2 μM): very strong killing activity
